Reference: patent publication US20220088024A1, “METHODS FOR TREATING CANCER USING TOZADENANT” (Biotie Therapies, Inc., priority 2018, published 2022)
“And” between values parts separate entries of the source, which are not always exact repeats. Identical values can stand only once.

Tested on: B16F10 CD73 melanoma metastases
Experiment: Example 9: number of lung tumor metastases in the B16F10 CD73 tumor mouse model
Format: in vivo, C57/BL6 mice (A2A-/- or Wild-Type)
Method: The C57/BL6 mouse melanoma cell line B16F10 CD73 was cultured in DMEM supplemented with 10% FCS, GlutaMAX, and penicillin/streptomycin. Tumor cells are periodically verified to be Mycoplasma negative by the Victorian Infectious Diseases References
Lab (Melbourne, VIC, Australia) by PCR analysis. 2×10^5 cells were resuspended in PBS and injected i.v. into C57/BL6 mice (A2A^−/− or Wild-Type) in a 200 μL volume. At day 14 lungs were excised and the number of metastases counted under the dissecting microscope. Mice were dosed with either SYN-115 (Batch 71236AA002) at 100 mg/kg or vehicle control once-daily via oral gavage on days 0 to 13. To calculate a dose of SYN-115 mouse weight was estimated to be 20 g per mouse. Therefore, 100 mg/kg=2 mg per mouse in 200 μL, which is equivalent to 10 mg/ml. To make up 40 mL, 400 milligrams of SYN-115 was weighed and added into a Falcon tube, then 1 mL of Tween 80 was added and mixed into a paste and then 39 mL of 1% Methyl Cellulose was added. The solution was vortexed and then left on a rotating mixer for at least 2 hours and maintained at 4° C.

## COc1ccc(N2CCOCC2)c2sc(NC(=O)N3CCC(C)(O)CC3)nc12 [SYN-115, 4-hydroxy-4-methyl-piperidine-1-carboxylic acid (4-methoxy-7-morpholin-4-yl-benzothiazol-2-yl)-amide]
100 mg/kg once-daily oral gavage days 0 to 13, counted day 14, Batch 71236AA002
  Number of Tumor Metastases (lung), individual mice: 53 and 108 and 107 and 61 and 72 and 64 and 40 and 24 and 56 and 82
SYN-115 100 mg/kg once-daily oral, days 0 to 13
  Efficacy on tumor metastases: No efficacy
